Measured values taken from the NIST ThermoML archive (doi:10.1021/je060271a).
Numbers after ± are expanded uncertainties.

Settings: 283.16 K, Liquid, Vibrating tube method

CCCC(=O)OCC(COC(=O)CCC)(COC(=O)CCC)COC(=O)CCC [pentaerythritol tetrabutyrate]
Settings	mass density [kg/m3]
6243.9 kPa	1062.8 ± 1.3
6250.7 kPa	1062.7 ± 1.3
6257.4 kPa	1062.7 ± 1.3
6265.2 kPa	1062.8 ± 1.3
6271.9 kPa	1062.7 ± 1.3
6278.8 kPa	1062.7 ± 1.3
6300.1 kPa	1062.8 ± 1.3
6308.2 kPa	1062.8 ± 1.3
6314.8 kPa	1062.8 ± 1.3
6321.7 kPa	1062.7 ± 1.3
6328.1 kPa	1062.7 ± 1.3
6336.4 kPa	1062.8 ± 1.3
6343.5 kPa	1062.8 ± 1.3
6350.2 kPa	1062.8 ± 1.3
6357.3 kPa	1062.8 ± 1.3
6365.3 kPa	1062.7 ± 1.3
6372 kPa	1062.8 ± 1.3
6379.3 kPa	1062.6 ± 1.3
6387.5 kPa	1062.7 ± 1.3
6394.3 kPa	1062.7 ± 1.3
6401.4 kPa	1062.9 ± 1.3
6408.5 kPa	1062.8 ± 1.3
6416.8 kPa	1062.8 ± 1.3
6423.7 kPa	1062.9 ± 1.3
6432.1 kPa	1062.8 ± 1.3
6439.2 kPa	1062.8 ± 1.3
6446.1 kPa	1062.8 ± 1.3
6453.2 kPa	1062.8 ± 1.3
6460.5 kPa	1062.8 ± 1.3
6469.1 kPa	1062.8 ± 1.3
6476 kPa	1062.8 ± 1.3
6483.3 kPa	1062.8 ± 1.3
6491.8 kPa	1062.9 ± 1.3
6498.7 kPa	1062.8 ± 1.3
6505.9 kPa	1062.9 ± 1.3
6513.4 kPa	1062.8 ± 1.3
6522.2 kPa	1062.9 ± 1.3
6529.1 kPa	1062.9 ± 1.3
6536.5 kPa	1062.8 ± 1.3
6543.9 kPa	1062.9 ± 1.3
6552.9 kPa	1062.9 ± 1.3
6560.5 kPa	1062.9 ± 1.3
6567.3 kPa	1062.9 ± 1.3
6575.9 kPa	1062.8 ± 1.3
6583.2 kPa	1062.9 ± 1.3
6590.8 kPa	1062.9 ± 1.3
6598.2 kPa	1062.9 ± 1.3
6606.8 kPa	1062.9 ± 1.3
6614.3 kPa	1062.9 ± 1.3
6621.5 kPa	1062.9 ± 1.3
6630.5 kPa	1062.9 ± 1.3
6638.3 kPa	1062.9 ± 1.3
6645.9 kPa	1062.8 ± 1.3
6653.6 kPa	1062.9 ± 1.3
6662.1 kPa	1063 ± 1.3
6669.8 kPa	1062.9 ± 1.3
6678.8 kPa	1063 ± 1.3
6685.9 kPa	1063 ± 1.3
6693.8 kPa	1063 ± 1.3
6701.4 kPa	1063.1 ± 1.3
6710.6 kPa	1063 ± 1.3
6718.2 kPa	1062.9 ± 1.3
6725.8 kPa	1063 ± 1.3
6735.1 kPa	1062.8 ± 1.3
6742.9 kPa	1063.1 ± 1.3
6750.9 kPa	1063 ± 1.3
6759.3 kPa	1062.9 ± 1.3
6766.9 kPa	1062.9 ± 1.3
6774.9 kPa	1063 ± 1.3
6784.2 kPa	1063 ± 1.3
6799.4 kPa	1063 ± 1.3
6808.2 kPa	1063.1 ± 1.3
6815.3 kPa	1063 ± 1.3
6822.2 kPa	1063 ± 1.3
6830 kPa	1063.1 ± 1.3
6835.8 kPa	1063.1 ± 1.3
6840.7 kPa	1063.1 ± 1.3
6845.5 kPa	1063 ± 1.3
6861.6 kPa	1063 ± 1.3
6890.3 kPa	1063 ± 1.3
6919.1 kPa	1063 ± 1.3
6948.8 kPa	1063 ± 1.3
6983.9 kPa	1063.1 ± 1.3
7013.2 kPa	1063.2 ± 1.3
7043.3 kPa	1063.1 ± 1.3
7073.9 kPa	1063.2 ± 1.3
7111.3 kPa	1063.2 ± 1.3
7141.9 kPa	1063.2 ± 1.3
7172.4 kPa	1063.1 ± 1.3
7231.8 kPa	1063.2 ± 1.3
7286.9 kPa	1063.4 ± 1.3
7348.1 kPa	1063.3 ± 1.3
7377.4 kPa	1063.2 ± 1.3
7488.6 kPa	1063.5 ± 1.3
7519.7 kPa	1063.4 ± 1.3
7758.9 kPa	1063.6 ± 1.3
7783.9 kPa	1063.7 ± 1.3
7814.3 kPa	1063.5 ± 1.3
7838.8 kPa	1063.7 ± 1.3
7861.2 kPa	1063.7 ± 1.3
7886.6 kPa	1063.7 ± 1.3
7908.5 kPa	1063.6 ± 1.3
7930.2 kPa	1063.7 ± 1.3
7952.2 kPa	1063.7 ± 1.3
7978.4 kPa	1063.7 ± 1.3
8000.3 kPa	1063.7 ± 1.3
8022.4 kPa	1063.7 ± 1.3
8048.9 kPa	1063.8 ± 1.3
8071.7 kPa	1063.7 ± 1.3
8094.5 kPa	1063.8 ± 1.3
8121.4 kPa	1063.8 ± 1.3
8144.2 kPa	1063.9 ± 1.3
8166.8 kPa	1063.7 ± 1.3
8194.2 kPa	1063.8 ± 1.3
8217.7 kPa	1063.9 ± 1.3
8241.7 kPa	1063.9 ± 1.3
8269.4 kPa	1063.8 ± 1.3
8316.5 kPa	1063.8 ± 1.3
8340.2 kPa	1063.9 ± 1.3
8369.1 kPa	1063.9 ± 1.3
8393.5 kPa	1063.9 ± 1.3
8418.1 kPa	1063.9 ± 1.3
8448 kPa	1063.9 ± 1.3
8472.3 kPa	1064 ± 1.3
8501.9 kPa	1064.2 ± 1.3
8527.3 kPa	1064 ± 1.3
8553.2 kPa	1064.1 ± 1.3
8580.4 kPa	1064 ± 1.3
8605.5 kPa	1064 ± 1.3
8631.2 kPa	1064.1 ± 1.3
8662.6 kPa	1064 ± 1.3
8688.3 kPa	1064 ± 1.3
8719.9 kPa	1064.1 ± 1.3
8746.3 kPa	1064.2 ± 1.3
8772.8 kPa	1064.2 ± 1.3
8799 kPa	1064.1 ± 1.3
8831.6 kPa	1064.1 ± 1.3
8858.5 kPa	1064.2 ± 1.3
8886.1 kPa	1064.3 ± 1.3
8920.4 kPa	1064.2 ± 1.3
8949 kPa	1064.2 ± 1.3
8976.4 kPa	1064.3 ± 1.3
9004.9 kPa	1064.3 ± 1.3
9038.9 kPa	1064.3 ± 1.3
9067 kPa	1064.4 ± 1.3
9095.4 kPa	1064.4 ± 1.3
9129.5 kPa	1064.3 ± 1.3
9159 kPa	1064.5 ± 1.3
9187.9 kPa	1064.3 ± 1.3
9222.8 kPa	1064.4 ± 1.3
9252.1 kPa	1064.4 ± 1.3
9282.2 kPa	1064.4 ± 1.3
9318.6 kPa	1064.4 ± 1.3
9349.3 kPa	1064.5 ± 1.3
9379.8 kPa	1064.5 ± 1.3
9411 kPa	1064.4 ± 1.3
9447.8 kPa	1064.7 ± 1.3
9478.5 kPa	1064.7 ± 1.3
9515.9 kPa	1064.6 ± 1.3
9547.2 kPa	1064.6 ± 1.3
9578.8 kPa	1064.6 ± 1.3
9616.9 kPa	1064.6 ± 1.3
9649.2 kPa	1064.6 ± 1.3
9681.5 kPa	1064.6 ± 1.3
9714.5 kPa	1064.6 ± 1.3
9755.2 kPa	1064.8 ± 1.3
9788.8 kPa	1064.7 ± 1.3
9830.3 kPa	1064.6 ± 1.3
9864.7 kPa	1064.7 ± 1.3
9896.4 kPa	1064.8 ± 1.3
9925.9 kPa	1064.9 ± 1.3
9960.2 kPa	1064.8 ± 1.3
9989.6 kPa	1064.9 ± 1.3
10025 kPa	1064.8 ± 1.3
10056 kPa	1064.9 ± 1.3
10087 kPa	1064.9 ± 1.3
10121 kPa	1065 ± 1.3
10145 kPa	1065.1 ± 1.3
10167 kPa	1064.9 ± 1.3
10189 kPa	1064.9 ± 1.3
10215 kPa	1064.9 ± 1.3
10238 kPa	1065 ± 1.3
10260 kPa	1065.1 ± 1.3
10278 kPa	1064.9 ± 1.3
10293 kPa	1065.1 ± 1.3
10311 kPa	1065 ± 1.3
10327 kPa	1065 ± 1.3
10342 kPa	1065 ± 1.3
10358 kPa	1065 ± 1.3
10377 kPa	1065.1 ± 1.3
10392 kPa	1065.1 ± 1.3
10408 kPa	1065.2 ± 1.3
10427 kPa	1065 ± 1.3
10443 kPa	1065.1 ± 1.3
10459 kPa	1065.2 ± 1.3
10478 kPa	1065.1 ± 1.3
10494 kPa	1065.2 ± 1.3
10510 kPa	1065.3 ± 1.3
10526 kPa	1065.2 ± 1.3
10545 kPa	1065.3 ± 1.3
10561 kPa	1065.2 ± 1.3
10578 kPa	1065.2 ± 1.3
10597 kPa	1065.2 ± 1.3
10613 kPa	1065.3 ± 1.3
10630 kPa	1065.3 ± 1.3
10646 kPa	1065.2 ± 1.3
10666 kPa	1065.2 ± 1.3
10682 kPa	1065.2 ± 1.3
10699 kPa	1065.3 ± 1.3
10719 kPa	1065.4 ± 1.3
10735 kPa	1065.3 ± 1.3
10755 kPa	1065.2 ± 1.3
10773 kPa	1065.3 ± 1.3
10789 kPa	1065.4 ± 1.3
10806 kPa	1065.3 ± 1.3
10827 kPa	1065.4 ± 1.3
10845 kPa	1065.2 ± 1.3
10863 kPa	1065.3 ± 1.3
10879 kPa	1065.4 ± 1.3
10900 kPa	1065.5 ± 1.3
10917 kPa	1065.4 ± 1.3
10934 kPa	1065.4 ± 1.3
10955 kPa	1065.4 ± 1.3
10972 kPa	1065.4 ± 1.3
10990 kPa	1065.3 ± 1.3
11010 kPa	1065.4 ± 1.3
11028 kPa	1065.5 ± 1.3
11046 kPa	1065.4 ± 1.3
11067 kPa	1065.5 ± 1.3
11086 kPa	1065.4 ± 1.3
11104 kPa	1065.4 ± 1.3
11122 kPa	1065.5 ± 1.3
11144 kPa	1065.5 ± 1.3
11162 kPa	1065.7 ± 1.3
11180 kPa	1065.5 ± 1.3
11202 kPa	1065.6 ± 1.3
11220 kPa	1065.5 ± 1.3
11238 kPa	1065.6 ± 1.3
11257 kPa	1065.4 ± 1.3
11279 kPa	1065.6 ± 1.3
11298 kPa	1065.7 ± 1.3
11316 kPa	1065.6 ± 1.3
11339 kPa	1065.7 ± 1.3
11479 kPa	1065.6 ± 1.3
11499 kPa	1065.8 ± 1.3
11522 kPa	1065.7 ± 1.3
11541 kPa	1065.8 ± 1.3
11561 kPa	1065.7 ± 1.3
11584 kPa	1065.8 ± 1.3
11604 kPa	1065.8 ± 1.3
11624 kPa	1065.8 ± 1.3
11643 kPa	1065.8 ± 1.3
11970 kPa	1065.9 ± 1.3
12038 kPa	1066.1 ± 1.3
12063 kPa	1066.2 ± 1.3
12084 kPa	1066.1 ± 1.3
12106 kPa	1066.2 ± 1.3
12132 kPa	1066 ± 1.3
12154 kPa	1066.1 ± 1.3
12175 kPa	1066.1 ± 1.3
12198 kPa	1066.1 ± 1.3
12224 kPa	1066.2 ± 1.3
12246 kPa	1066.2 ± 1.3
12268 kPa	1066.1 ± 1.3
12294 kPa	1066.2 ± 1.3
12316 kPa	1066.3 ± 1.3
12338 kPa	1066.3 ± 1.3
12365 kPa	1066.3 ± 1.3
12388 kPa	1066.2 ± 1.3
12410 kPa	1066.3 ± 1.3
12437 kPa	1066.3 ± 1.3
12460 kPa	1066.2 ± 1.3
12483 kPa	1066.3 ± 1.3
12510 kPa	1066.3 ± 1.3
12533 kPa	1066.3 ± 1.3
12556 kPa	1066.3 ± 1.3
12584 kPa	1066.4 ± 1.3
12607 kPa	1066.4 ± 1.3
12630 kPa	1066.3 ± 1.3
12659 kPa	1066.4 ± 1.3
12682 kPa	1066.4 ± 1.3
12705 kPa	1066.3 ± 1.3
12734 kPa	1066.3 ± 1.3
12758 kPa	1066.4 ± 1.3
12784 kPa	1066.6 ± 1.3
12809 kPa	1066.5 ± 1.3
12838 kPa	1066.5 ± 1.3
12862 kPa	1066.4 ± 1.3
12886 kPa	1066.5 ± 1.3
12911 kPa	1066.6 ± 1.3
12940 kPa	1066.6 ± 1.3
12965 kPa	1066.6 ± 1.3
12994 kPa	1066.6 ± 1.3
